Key:
[1] = compound: C1=CC2=C(C=C(C(=C2N=C1)O)N=NC3=CC4=C(C=C3)C=C(C=C4)S(=O)(=O)O)S(=O)(=O)O + CC(=O)Nc1cccc(-n2c(=O)n(C3CC3)c(=O)c3c(Nc4ccc(I)cc4F)n(C)c(=O)c(C)c32)c1 [Trametinib] (partner 0.02 µM); assay: relative viability (nuclei count vs DMSO), 5 days (fraction); higher = more cells survive
Method in brief: (§1)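 Relative viability is defined as nuclei in treated wells over nuclei in vehicle wells. Duplicate plates were run and medians reported. Lung cancer cell lines in 1536-well plates were dosed by pin tool one day after seeding, with one drug or with a fixed anchor-drug dose plus five library-drug doses (not always all listed) in √10 steps, and nuclei were counted after 5 days.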

[2] = compound: O=C(NC1CCNCC1)c1n[nH]cc1NC(=O)c1c(Cl)cccc1Cl [AT-7519] + Cc1nc(Nc2ncc(C(=O)Nc3c(C)cccc3Cl)s2)cc(N2CCN(CCO)CC2)n1 [Dasatinib] (partner 0.075 µM); assay: as above
Method in brief: as §1

| Cell Line | relative viability ([1]; first compound 0.08 µM) | relative viability ([1]; first compound 0.253 µM) | relative viability ([1]; first compound 0.8 µM) | relative viability ([1]; first compound 2.53 µM) | relative viability ([1]; first compound 8 µM) | relative viability ([2]; first compound 0.01 µM) | relative viability ([2]; first compound 0.03162 µM) | relative viability ([2]; first compound 0.3162 µM) | relative viability ([2]; first compound 1 µM) |
| --- | --- | --- | --- | --- | --- | --- | --- | --- | --- |
| HCC-44 | 1.04 | 1.01 | 1.09 | 1.04 | 0.797 | – | – | – | – |
| HCC-827 | 0.505 | 0.521 | 0.524 | 0.524 | 0.578 | 0.299 | 0.298 | 0.207 | 0.249 |
| NCI-H1623 | – | – | – | – | – | 0.58 | 0.646 | 0.63 | 0.604 |
| NCI-H2347 | 0.316 | 0.303 | 0.279 | 0.262 | 0.316 | 0.375 | 0.32 | 0.356 | 0.0926 |
| PC-14 | 0.743 | 0.688 | 0.782 | 0.838 | 0.69 | 0.241 | 0.239 | 0.163 | 0.0573 |
| NCI-H1651 | 0.799 | 0.839 | 0.832 | 0.848 | 0.744 | 0.396 | 0.304 | 0.406 | 0.292 |
| HARA | 0.878 | 0.442 | 0.869 | 0.82 | 0.532 | 0.265 | 0.28 | 0.314 | 0.211 |
| NCI-H1650 | 0.672 | 0.547 | 0.512 | 0.682 | 0.433 | 0.32 | 0.293 | 0.22 | 0.164 |
| NCI-H1395 | 1.07 | 1.02 | 1.02 | 0.911 | 1.02 | 0.418 | 0.377 | 0.408 | 0.413 |
| LU99A | 0.582 | 0.502 | 0.505 | 0.548 | 0.646 | 0.609 | 0.574 | 0.468 | 0.536 |
| NCI-H1355 | 0.41 | 0.411 | 0.431 | 0.416 | 0.476 | 0.747 | 0.633 | 0.602 | 0.784 |
| HCC-78 | 0.804 | 0.724 | 0.813 | 0.712 | 0.675 | 0.368 | 0.397 | 0.335 | 0.364 |
| NCI-H1563 | – | – | – | – | – | 0.467 | 0.418 | 0.435 | 0.434 |
| HCC-15 | 0.427 | 0.387 | 0.428 | 0.377 | 0.365 | 0.669 | 0.584 | 0.433 | 0.191 |
| EKVX | 0.346 | 0.305 | 0.37 | 0.341 | 0.332 | 0.526 | 0.388 | 0.346 | 0.449 |
| NCI-H2087 | 0.2 | 0.213 | 0.196 | 0.217 | 0.236 | 1.14 | 0.938 | 0.732 | 0.108 |
| LK-2 | 0.795 | 0.602 | 0.607 | 0.776 | 0.552 | 0.288 | 0.248 | – | 0.221 |
| NCI-H1437 | 0.528 | 0.477 | 0.524 | 0.623 | 0.641 | 0.444 | 0.424 | 0.377 | 0.486 |
| COR-L23 | 0.669 | 0.604 | 0.609 | 0.556 | 0.611 | 0.434 | 0.513 | 0.369 | 0.137 |

| Cell Line | relative viability ([1]; first compound 0.08 µM) | relative viability ([1]; first compound 0.253 µM) | relative viability ([1]; first compound 0.8 µM) | relative viability ([1]; first compound 2.53 µM) | relative viability ([1]; first compound 8 µM) | relative viability ([2]; first compound 0.01 µM) | relative viability ([2]; first compound 0.03162 µM) | relative viability ([2]; first compound 0.3162 µM) | relative viability ([2]; first compound 1 µM) |
| --- | --- | --- | --- | --- | --- | --- | --- | --- | --- |
| ABC-1 | – | – | – | – | – | 0.525 | 0.617 | 0.398 | 0.262 |
| NCI-H522 | 0.494 | 0.676 | 0.748 | 0.791 | 0.894 | – | 0.864 | 0.841 | 0.956 |
| NCI-H838 | 0.566 | 0.543 | 0.453 | 0.508 | 0.653 | 0.298 | 0.285 | 0.259 | 0.249 |
| SW 900 | 0.873 | 0.764 | 0.699 | 0.968 | 0.821 | 0.715 | 0.568 | 0.642 | 0.254 |
| A-427 | 0.721 | 0.719 | 0.718 | 0.781 | 0.732 | 0.702 | 0.675 | 0.707 | 0.391 |
| NCI-H1792 | 0.5 | 0.387 | 0.454 | 0.494 | 0.391 | – | – | 0.845 | 0.654 |
| LCLC-97TM1 | 0.197 | 0.183 | 0.191 | 0.182 | 0.15 | 0.911 | 0.791 | 0.763 | 0.396 |
| LCLC-103H | 0.661 | 0.706 | 0.658 | 0.667 | 0.675 | 0.533 | 0.388 | 0.451 | 0.54 |
| PC-3 [JPC-3] | 0.78 | 0.725 | 0.737 | 0.735 | 0.644 | 0.841 | 0.99 | 0.915 | 1.04 |
| BEN | 1.1 | 1.1 | 0.948 | 1.07 | 1.05 | 0.354 | 0.321 | 0.399 | 0.331 |
| NCI-H1666 | 0.874 | 0.877 | 0.861 | 0.861 | 0.903 | 0.744 | 0.75 | 0.75 | 0.593 |
| LC-2-ad | 0.932 | 0.851 | 0.941 | 0.892 | 0.98 | 0.555 | 0.61 | 0.328 | 0.332 |
| SK-LU-1 | 0.681 | 0.509 | 0.517 | 0.499 | 0.672 | 0.171 | 0.155 | 0.157 | 0.163 |
| ChaGo-K-1 | 0.983 | 0.908 | 0.938 | 0.875 | 0.798 | 0.583 | 0.501 | 0.611 | 0.543 |
| COR-L 105 | 0.514 | 0.437 | 0.469 | 0.48 | 0.476 | 0.366 | 0.334 | 0.259 | 0.23 |
| NCI-H1975 | 0.382 | 0.332 | 0.381 | 0.292 | 0.585 | 0.341 | 0.341 | 0.384 | 0.127 |
| NCI-H1993 | 0.49 | 0.465 | 0.575 | 0.539 | 0.504 | 0.626 | 0.516 | 0.441 | 0.312 |
| RERF-LC-KJ | 0.935 | 0.864 | 0.849 | 0.96 | 0.644 | 0.903 | 0.847 | 0.611 | 0.195 |
| NCI-H23 | 0.39 | 0.319 | 0.392 | 0.443 | 0.346 | 0.681 | 0.715 | 0.811 | 0.438 |

Reference: the supplement of paper PMC10307832
